Data as given in patent US10828284B2, “Compositions and methods for treating conditions related to elevated levels of eosinophils and/or basophils” (Knopp Biosciences LLC, priority 2013, dated 2020).
Read-outs that look alike come from different tables or passages of the source.

Assays:
eosinophils [1] = details: for mean eosinophils at week 16 recovered to, of baseline levels: after one-month washout following week 12
Description: The Phase 2 trial was a two-part, double-blind study that evaluated the safety, tolerability, and clinical effects of dexpramipexole in ALS patients.
In Part 1, subjects were randomized to placebo (n=27), 50 mg/day (n=23), 150 mg/day (n=26), or 300 mg/day dexpramipexole (n=26) for 12 weeks.

eosinophils [2] = details: OVA mice, 100 mg/kg, day 42, p=0.0041
eosinophils [3] = test system: eosinophils
Description: (§1) The phase 3 clinical trial was a double-blind study of dexpramipexole in ALS patients randomized 1:1 to placebo or dexpramipexole 300 mg daily treatment. Hematology parameters were collected as part of routine safety monitoring. Eosinophil and basophil counts were retrospectively analyzed by visit.
Eosinophil levels were summarized over available time points and analyzed by ANOVA testing the effect of treatment vs. placebo on mean changes in serum eosinophil counts from baseline. Subjects with baseline eosinophils from 0 to 0.02×10^9/L (constituting less than 2% of all subjects analyzed) were censored from the primary analysis because of the inherent limitation to observe a decline from baseline.
Statistical analysis of the change from baseline was performed at month 6 to remove the effect of study dropouts in later months.

[4] = humans, exposures up to 18 months
eosinophils [5] = test system: eosinophils; remark: listed apart in the source
Description: In a 39-week repeat-dose toxicology study, minipigs were dosed at 0, 7.5, 25, and 75 mg/kg dexpramipexole by daily oral gavage through Study Day 45 and at 0, 7.5, 25, and 50 mg/kg dexpramipexole from Study Day 46 to study completion.

[6] = test system: infiltrating white blood cells; details: OVA mice, 30 and 100 mg/kg, day 42, compared to OVA
basophils = details: 300 mg daily, remained reduced through month 12
Description: as §1
Changes in basophil counts were also analyzed in the Phase 3 trial.

With CCCN[C@@H]1CCc2nc(N)sc2C1 [dexpramipexole, (6R)-2-amino-4,5,6,7-tetrahydro-6-(propylamino)benzothiazole] the “mean eosinophils at week 16 recovered to, of baseline levels” value (eosinophils [1]; 150 mg/day group) was 47%, the “mean eosinophils at week 16 recovered to, of baseline levels” value (eosinophils [1]; 300 mg/day group) was 73% and the “effect on eosinophil counts” value (eosinophils [1]; ALS subjects, Phase 2) was “dose- and time-dependent decrease in eosinophil counts”. For the same compound, the “effect on eosinophil counts in a subject with hypereosinophilia at baseline” value (eosinophils [1]; one Phase 2 subject, Part 2 baseline, persisted through month 12) was “decrease in eosinophil counts”, the “circulating levels of eosinophils compared to vehicle-treated controls” value (eosinophils [2]) was “significantly reduced” and the “effect on peripheral blood eosinophil count” value (eosinophils [3]; 300 mg daily, after 8-12 weeks of treatment, persisted for the duration of the trial) was “profound decrease”. For the same compound, the “effect on eosinophil counts in a subject with elevated baseline eosinophil counts” value (eosinophils [3]; Phase 3 subject with highest baseline eosinophil count, persisted through month 12) was “decrease in eosinophil counts”, the “decrease in eosinophil count in subjects with higher eosinophil counts” value (eosinophils [3]; subjects (n=42) with baseline >0.25×10^9/L, after 6 months of treatment) was 75% and the tolerability [4] was “well-tolerated”. For the same compound, the “safety assessment of eosinophil differences” value (eosinophils [5]; minipig, in vivo) was “not considered adverse”, the effect on eosinophils (eosinophils [5]; minipigs, 0, 7.5, 25 and 75 (50 from Study Day 46) mg/kg daily oral gavage, 39 weeks) was “dose- and time-dependent reduction in eosinophils” and the “infiltrating white blood cells in bronchoalveolar lavage fluid” value [6] was “dose-dependent decrease in infiltrating white blood cells”. For the same compound, the “time at which basophil decline reached plateau” value (basophils) was ~4 month.
